These molecules were tested against T1, Aromatase (Homo sapiens, UniProt P11511) (assay: Inhibition of aromatase).
T1 sequence (P11511 whole entry): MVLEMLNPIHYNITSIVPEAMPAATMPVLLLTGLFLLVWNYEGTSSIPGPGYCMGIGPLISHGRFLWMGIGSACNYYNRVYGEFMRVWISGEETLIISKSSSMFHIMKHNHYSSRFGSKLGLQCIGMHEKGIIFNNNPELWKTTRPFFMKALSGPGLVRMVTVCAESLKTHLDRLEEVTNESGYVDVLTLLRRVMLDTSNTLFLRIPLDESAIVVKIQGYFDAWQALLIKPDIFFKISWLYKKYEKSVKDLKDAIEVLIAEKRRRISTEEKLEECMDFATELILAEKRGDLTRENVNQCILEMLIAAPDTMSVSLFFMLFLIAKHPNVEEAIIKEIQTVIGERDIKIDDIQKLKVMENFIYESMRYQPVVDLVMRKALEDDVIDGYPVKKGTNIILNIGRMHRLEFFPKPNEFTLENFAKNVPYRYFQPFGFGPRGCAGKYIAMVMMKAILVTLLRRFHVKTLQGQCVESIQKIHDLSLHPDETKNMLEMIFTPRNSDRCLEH
Work on `CC(=O)O[C@H]1CC[C@]2(C)[C@H]3CC=C4[C@@H]5[C@@H](C)[C@H](C)CC[C@]5(C(=O)O)CC[C@@]4(C)[C@]3(C)CC[C@H]2C1(C)C` [O-ACETYLURSOLIC ACID] yielded an IC50 of 85.6 µM.
`C[C@H]1[C@H](C)CC[C@]2(C(=O)O)CC[C@]3(C)C(=CC[C@@H]4[C@@]5(C)CC[C@H](O)C(C)(C)[C@@H]5CC[C@]43C)[C@H]12` [URSOLIC ACID] showed an IC50 of 30.7 µM.

Each molecule was assayed against T1, Aromatase (assay: Inhibition of aromatase at 40.7 uM).
`CC1(C)CC[C@]2(C(=O)O)CC[C@]3(C)C(=CC[C@@H]4[C@@]5(C)CC[C@H](O)C(C)(C)[C@@H]5CC[C@]43C)[C@@H]2C1` [OLEANOLIC_ACID] gave an inhibition at 40.7 µM of 12%.
In the case of `C[C@H]1[C@H](C)CC[C@]2(C(=O)O)CC[C@]3(C)C(=CC[C@@H]4[C@@]5(C)CC[C@H](O)C(C)(C)[C@@H]5CC[C@]43C)[C@H]12` [URSOLIC ACID], the inhibition at 40.7 µM is reported as 12%.

The molecules below were run against T1, Aromatase (assay: Inhibition of aromatase in human placental microsomes assessed as tritiated water release after 15 mins using [1-beta, 3H]androstenedione as substrate by scintillation counting).
Parameters: species or system Placenta
With `C[C@H]1[C@H](C)CC[C@]2(C(=O)NCCCN3CCN(CCCN)CC3)CC[C@]3(C)C(=CC[C@@H]4[C@@]5(C)CC[C@H](O)C(C)(C)[C@@H]5CC[C@]43C)[C@H]12` the IC50 was less than 500 µM.
Work on `CC(=O)O[C@H]1CC[C@]2(C)[C@H]3CC=C4[C@@H]5[C@@H](C)[C@H](C)CC[C@]5(C(=O)NCCCN5CCN(CCCN)CC5)CC[C@@]4(C)[C@]3(C)CC[C@H]2C1(C)C` yielded an IC50 of less than 500 µM.
With `C[C@H]1[C@H](C)CC[C@]2(C(=O)O)CC[C@]3(C)C(=CC[C@@H]4[C@@]5(C)CCC(=O)NC(C)(C)[C@@H]5CC[C@]43C)[C@H]12` the IC50 was greater than 500 µM.
With `C=C(C)[C@@H]1CC[C@]2(C)[C@H](CC=C3[C@@H]4[C@@H](C)[C@H](C)CC[C@]4(C(=O)O)CC[C@]32C)[C@@]1(C)CCC#N` the IC50 was greater than 500 µM.
Molecule `C[C@H]1[C@H](C)CC[C@]2(C(=O)O)CC[C@]3(C)C(=CC[C@@H]4[C@@]5(C)CC/C(=N\O)C(C)(C)[C@@H]5CC[C@]43C)[C@H]12` has an IC50 greater than 500 µM.
Work on `C[C@]12CCC(=O)C(O)=C1CC[C@@H]1[C@@H]2CC[C@]2(C)C(=O)CC[C@@H]12` [FORMESTANE] yielded an IC50 of 0.8 µM.
With `C[C@H]1[C@H](C)CC[C@]2(C(=O)O)CC[C@]3(C)C(=CC[C@@H]4[C@@]5(C)CC[C@H](O)C(C)(C)[C@@H]5CC[C@]43C)[C@H]12` [URSOLIC ACID] the IC50 was 32 µM.
For `C[C@H]1[C@H](C)CC[C@]2(C(=O)O)CC[C@]3(C)C(=CC[C@@H]4[C@@]5(C)CCC(=O)C(C)(C)[C@@H]5CC[C@]43C)[C@H]12` [URSONIC ACID], the IC50 was greater than 500 µM.
